The test system of one experiment is E. coli. As to the kind of experiment: Bacterial expression / toxicity (colony formation) of Killin and truncated Killin. In kind it is cell-based. Particulars: for toxicity to E. coli (colony formation in the absence of transcriptional repression): pQE32 plasmids expressing truncated Killin. As for the experimental part: Mutagenesis experiments were performed using EMS (ethylmethanesulfonate) (Sigma) as described previously with minor modification. Exponentially growing XL-1 blue with pQE32-Killin was harvested by centrifugation, washed, and resuspended in minimal A buffer (10.5 g of K2HPO4, 4.5 g of KH2PO4, 1 g of [NH4]2SO4, and 0.5 g of sodium citrate:2H2O in 1 liter). EMS was added to the cells at a concentration of 140 μM for 1 hour during continuous shaking at 37° C. After washing with minimal A buffer, cells was diluted 1:10 in LB medium and grown for 6 hrs at 37° C. before mutagenized plasmids were purified and transformed into either GH1 (without repression, GenHunter) or XL-1 blue (with repression, Stratagene) competent cells. Ampicilin resistant colonies were scored after an overnight incubation.
For deletion analysis, PCR was performed to amplify different regions of Killin as specified. PCR primer sequences used for the deletions are listed below:
The obtained PCR products were first cloned into PCR-TRAP cloning vector and then subcloned as BglII fragments into the BamHI site of the pQE32 6XHIS-tag expression vector (Qiagen). The expression vectors were transformed into XL-1 blue under transcription repression for the transgene (−IPTG). […] As a negative control, all vectors were simultaneously transformed into XL-1 blue cells, which gave near confluent transformants under transcription repression for all constructs. Similar deletion constructs were also made as GFP fusion protein as described above and transiently transfected into the H1299 cells to visualized their ability to cause cell apoptosis based on nuclear chromosome condensation.

The target in the next experiment is double-stranded DNA. As to the kind of experiment: In vitro DNA binding assay (gel shift, 32P-end labeled probes), double-stranded DNA template. Particulars: 32P-end labeled oligo nucleotide probes, read-out: apparent Kd. Here is the method:
(§1) In vitro transcribed and translated Killin cloned into pcDNA3.1 (Invitrogen) (K), or vector alone (V) were labeled with ^35S using Translabel (ICN) and a TnT kit (Promega). The labeled Killin and vector control were incubated with either single-stranded (ss) or double-stranded (ds) DNA cellulose (Sigma). After washing with PBS, bound proteins were resolved on a 15% SDS-PAGE gel, dried onto as 3M paper before autoradiography. For peptide binding, 42 as of Killin/N8-50 peptide (MW: 5007 dalton) was synthesized and verified with mass spec by Sigma-Genosys at a purity of at least 70%. The peptide was dissolved in PBS as 1 mg/mL stock solution before use, For in vitro DNA binding assay, 3 primers (32-35 bases in length) with arbitrary sequences were designed:
(§2) After annealing, probes for artificial replication fork (LL and RL) or double-stranded DNA template (LL and RLM) were end-labeled with α-^32P-dATP (Perkin-Elmer) using Klenow (New England Biolab). Single-stranded oligonucleotide (LL) was end-labeled with […] (Perkin-Elmer) using T4 polynucleotide kinase (New England Biolab). […] For binding kinetics, bands from DNA-peptide complex were excised and the radioactivity was determined by scintillation counting. […]

For experiment [1], the target named is artificial replication fork. As to the kind of experiment: In vitro DNA binding assay (gel shift, 32P-end labeled probes), artificial replication fork. Conditions: 32P-end labeled oligo nucleotide probes, read-out: apparent Kd. Here is the method:
as §1, §2
For orientation: A gel shift assay detects complexes by their altered migration in electrophoresis.

Another experiment has as its target single-stranded DNA. As to the kind of experiment: In vitro DNA binding assay (gel shift, 32P-end labeled probes), single-stranded DNA template. Conditions: 32P-end labeled oligo nucleotide probe, read-out: apparent Kd. Here is the method: as §1, §2
In experiment [2] the test system is SV40 origin (ori) of replication-dependent in vitro DNA replication. As to the kind of experiment: In vitro SV40 DNA replication assay. Particulars: peptide 1 to 16 μM; HEK293T nuclear extract as source of SV40 large T antigen. The experiment is classed as biochemical, simian virus 40 (SV40). As for the experimental part:
The SV40 origin (ori) of replication-dependent in vitro DNA replication was carried out essentially as described previously (L1 and Kelly, 1984) with minor modifications. Briefly, the source of SV40 large T antigen was from HEK293T cells (GenHunter). The SV40 ori-containing plasmid vector pAPtag-2 (GenHunter) and a negative control vector pUC18 that lacks SV40 ori were used as templates for the in vitro DNA replication assays. 10 ng of nuclear protein extracts and 250 ng of plasmid DNA template were used for each assay. Nascent DNA synthesis in the absence and presence of Killin/N8-50 peptide after ^32P-α-dATP labeling was analyzed on a 6% TBE PAGE gel, dried onto a 3 M paper (Whatman) and visualize by autoradiography.
To determine if Killin/N8-50 peptide binding to DNA has any consequences in DNA replication, the inventors employed the commonly used in vitro eukayotic DNA replication assays originally described by L1 and Kelly (1984). This assay uses soluble cell-free system derived from mammalian cell nuclear extract that is capable of replicating exogenous plasmid DNA molecules containing the simian virus 40 (SV40) origin of replication. Replication in the system is completely dependent upon the addition of the SV40 large T antigen. […]

For experiment [3], the system named is single-stranded (ss) DNA cellulose. As to the kind of experiment: DNA cellulose binding of in vitro transcribed and translated 35S-labeled Killin, single-stranded. Conditions: washed with PBS. Here is the method:
as §1, with “designed: […]” for “designed:”

The subject of experiment [4] is double-stranded (ds) DNA cellulose. As to the kind of experiment: DNA cellulose binding of in vitro transcribed and translated 35S-labeled Killin, double-stranded. Particulars: washed with PBS. As for the experimental part:
as §1, with “designed: […]” for “designed:”

The source of these data is patent US9140705B2, “Tumor suppressor killin” (Vanderbilt University, priority 2005, dated 2015).

Take “C-terminal 124-178 amino acid residues: Killin coding region truncated at unique Eco41III site, C-terminal part (CRGWRLGNWLHKHPHPNTCPRLPACWLPPILTERGERVPKLVPLLACYPKSKPKD; UniProt B2CW77 124-178, looked up, fragment)”: the “toxicity to E. coli (colony formation in the absence of transcriptional repression)” value in the experiment with E. coli is listed as “able to transform E. coli into colonies”. As to “Killin/N8-50: chemically synthesized peptide of 42 amino acid residues corresponding to N8-50 of Killin (SARPGRTVHVWGYRVEWKVRNGRKLQPSEWAGRGDLGGFKRRW; UniProt B2CW77 8-50, looked up, fragment)”, the Kd on double-stranded DNA amounted to 1 µM; in experiment [1], 1 µM; on single-stranded DNA it was 0.5 µM. Also, the “inhibition of DNA replication in vitro” value in experiment [2] is on record as “greatly inhibit DNA replication”.

B1: N-terminal 123 amino acids: Killin coding region truncated at unique Eco41III site, N-terminal part (protein, UniProt B2CW77 1-123, looked up, fragment)
chain: MDRPGPGSARPGRTVHVWGYRVEWKVRNGRKLQPSEWAGRGDLGGFKRRWKDTRATVGTTFRRRSRVSLVGELSKFPLPSDSSGGKSSSSFARGALAWCRQRNPNPSCAAAETGARTSLPKER
Take B1: the “toxicity to E. coli (colony formation in the absence of transcriptional repression)” value with E. coli is “sufficient to retain toxicity to E. coli”.

B2: Killin: novel 20 kDa basic nuclear DNA binding protein of 178 amino acids (SEQ ID NO:1), p53 target gene product (protein, listed as Homo sapiens)
chain: MDRPGPGSARPGRTVHVWGYRVEWKVRNGRKLQPSEWAGRGDLGGFKRRWKDTRATVGTTFRRRSRVSLVGELSKFPLPSDSSGGKSSSSFARGALAWCRQRNPNPSCAAAETGARTSLPKERCRGWRLGNWLHKHPHPNTCPRLPACWLPPILTERGERVPKLVPLLACYPKSKPKD
As for B2, the “binding to DNA template” value in experiment [3] and in experiment [4] was “able to bind” each time.

B3: 6×HIS-tagged Killin: bacterially expressed full-length N-terminal His-tagged Killin (pQE32 vector) (protein, UniProt B2CW77 1-178, looked up)
chain: B2 chain
modifications: full-length N-terminal His6 tag
On to B3, for which, in the experiment with E. coli (bacterial expression, induction by IPTG), the “time to growth arrest of the bacteria hosts after IPTG induction” value is recorded as not above 30 min.
